Values quoted from earlier work, collected in US20250082671A1, “ANIMAL FEED ADDITIVE COMPOSITION, PRE-MIX FEED COMPOSITION AND MANUFACTURING METHOD FOR SUB CLINICAL HYPCALCEMIA RELIEF, ENERGY IMPROVEMENT AND INCREASED MILK PRODUCTION” (Chemlock Metals Corp., priority 2023, published 2025).

Tested on: cows
Conditions: multiparous cows compared to un-supplemented ones

chromium propionate complex
dry matter intake (DMI): on average higher
